The values that follow come from article PMC11765572 (International Journal of Molecular Sciences, 2025).

The subject of this data set is SARS-CoV-2 (BetaCov/Belgium/GHB-03021/2020 B.1 lineage A).

For the molecule `CNC(=O)c1cc(Br)cc([N+](=O)[O-])c1N[C@@H]1CCCC[C@@H]1NC(=O)c1cncc(O)c1` [Compound A6, N-((1S,2R)-2-((4-bromo-2-(methylcarbamoyl)-6-nitrophenyl)amino)cyclohexyl)-5-hydroxynicotinamide], the “SI (Selection Index) = CC50/EC50” value is listed as above 16.5.

As to `CNC(=O)c1cc(Br)cc([N+](=O)[O-])c1N[C@@H]1CCCC[C@@H]1NC(=O)c1cccnc1` [Compound A5, N-((1S,2R)-2-((4-bromo-2-(methylcarbamoyl)-6-nitrophenyl)amino)cyclohexyl)nicotinamide], the “SI (Selection Index) = CC50/EC50” value is on record as above 49.7.
